The results in this text go back to patent US4001230A, “3-(5-Nitroimidazol-2-yl)pyrazolo[3,4-d]pyrimidine compounds” (Eli Lilly and Company, priority 1975, dated 1977).

Read-outs that look alike come from different tables or passages of the source.

The subject of one assay is Pasteurella multocida. Description: Efficacy against Pasteurella multocida infections in mice when administered by injection. Format: in vivo, Female Swiss mice. The following applies: for responders at 5 mg/kg / responders at 2.5 mg/kg: Pasteurella multocida, ip, read-out: Survival ratio (mice surviving / mice tested) (converted). On the procedure: The efficacy of the novel compounds against Pasteurella multocida infections in mice when administered by injection was studied.
Female Swiss mice weighing from 15 to about 20 g. were used. The test compound, 5.0 mg., was weighed out and dissolved in 0.5 ml. of dimethyl sulfoxide, and this solution was added to 9.5 ml. of sodium carboxymethylcellulose suspension. Groups of five mice each were injected intraperitoneally with 0.1 ml. each of the above-prepared test composition. This preparation gave a test rate of 2.5 mg. per kilo of body weight of mouse. The compounds were tested at 1.25, 2.5, or 5.0 per kilogram of body weight of mouse, and the test preparations for the rates of 1.25 and 5.0 mg./kg. were prepared in a similar manner. Immediately after receiving the test compound, the mice were challenged using log10 dilutions of 10^-^4, 10^-^5 and 10^-^6,of a 16 to 20-hour tryptose broth culture of Pasteurella multocida at 0.1 ml. per mouse subcutaneously. Similar groups of nontreated control mice were also challenged, the challenge being administered subcutaneously. The groups of mice were observed daily for mortality and the total mortality in treated groups compared with that which occurred in the nonmedicated control groups. Each test compound is identified by the number of the example describing its preparation.
In the chart, column 1 lists the test compound; column 2, the dosage of test compound in mg./kg. of mouse body weight; column 3, the dilution of the challenge organism; and column 4, the ratio of the number of mice surviving the test at each dosage and challenge dilution to the number of mice tested at each dosage and challenge dilution, called the survival ratio.

The test system of the next assay is Aeromonas liquefaciens. As to the kind of experiment: In vitro activity against fish bacterial pathogen, standard tube dilution test (MIC). Format: cell-based. To be noted: Aeromonas hydrophila; Aeromonas liquefaciens; tryptose broth, overnight, about 37° C.; read-out: minimum inhibitory concentration (MIC). As for the experimental part: (§1) The in vitro activity of certain of the novel compounds of this invention against two fish bacterial pathogens was determined using tryptose broth and the standard tube dilution test system. Doubling dilutions ranging from 100.0 to 0.78 mcg./ml. of each of the test compounds were prepared in 5 ml. amounts of tryptose broth. Each tube in the series was then inoculated with one drop from a 24-hour broth culture of either Pseudomonas sp. or a strain of Aeromonas liquefaciens. The tubes were incubated overnight at about 37° C., and the minimum inhibitory concentration (MIC) determined and recorded.
(§2) Column 1 lists the test compounds identified by their operating example number; column 2 lists the MIC for Pseudomonas sp.; and column 3 lists the MIC for Aeromonas liquefaciens.

The subject of the next assay is Pseudomonas sp. The assay is described as above. The following applies: tryptose broth, overnight, about 37° C., read-out: minimum inhibitory concentration (MIC). Format: cell-based. As for the experimental part:
as §1, §2

Setting [1] is: 5.0 mg./kg. intraperitoneal, challenge dilution 10^-^4 subcutaneous.
Setting [2] is: 5.0 mg./kg. intraperitoneal, challenge dilution 10^-^5 subcutaneous.
The mark [3] stands for this setting: 5.0 mg./kg. intraperitoneal, challenge dilution 10^-^6 subcutaneous.
[4] abbreviates: 2.5 mg./kg. intraperitoneal, challenge dilution 10^-^4 subcutaneous.
[5] abbreviates: 2.5 mg./kg. intraperitoneal, challenge dilution 10^-^5 subcutaneous.
The mark [6] stands for this setting: 2.5 mg./kg. intraperitoneal, challenge dilution 10^-^6 subcutaneous.

`CC(=O)Nc1ncnc2c1c(-c1ncc([N+](=O)[O-])n1C)nn2C` [Example 11, N-[1-Methyl-3-(1-methyl-5-nitroimidazol-2-yl)-1H-pyrazolo[3,4-d]-pyrimidin-4-yl]acetamide]: the responders at 5 mg/kg in the assay on Pasteurella multocida (setting [1]) is 0%; with Pasteurella multocida (setting [2]), 0%; in the assay on Pasteurella multocida (setting [3]), 20%.

For `CCn1cnc2c(c(-c3ncc([N+](=O)[O-])n3C)nn2C)c1=N` [Example 7, 5-Ethyl-4,5-dihydro-4-imino-1-methyl-3-(1-methyl-5-nitroimidazol-2-yl)-1H-pyrazolo[3,4-d]pyrimidine], the responders at 2.5 mg/kg with Pasteurella multocida (setting [4]) is 20%; with Pasteurella multocida (setting [5]), 40%; in the assay with Pasteurella multocida (setting [6]), 60%. Besides, the responders at 5 mg/kg in the assay on Pasteurella multocida (setting [1]) is 40%; in the assay on Pasteurella multocida (setting [2]), 70%; with Pasteurella multocida (setting [3]) it was 100%.

Turning to `CN(C)CCn1cnc2c(c(-c3ncc([N+](=O)[O-])n3C)nn2C)c1=N.Cl.Cl` [Example 8g, 5-[2-(dimethylamino)-ethyl]-4,5-dihydro-4-imino-1-methyl-3-(1-methyl-5-nitroimidazol-2-yl)-1H-pyrazolo[3,4-d]pyrimidine dihydrochloride], the “Survival ratio (mice surviving / mice tested)” value in the assay with Pasteurella multocida (setting [4]) is reported as 2/10; with Pasteurella multocida (setting [5]) it was 6/10; in the assay on Pasteurella multocida (setting [6]) it was 10/10; in the assay with Pasteurella multocida (setting [1]), 7/10; in the assay on Pasteurella multocida (setting [2]), 9/10; in the assay with Pasteurella multocida (setting [3]), 10/10.

As to `Cn1c([N+](=O)[O-])cnc1-c1nn(C)c2ncnc(N)c12` [Example 4, 4-Amino-1-methyl-3-(1-methyl-5-nitroimidazol-2-yl)-1H-pyrazolo-[3,4-d]pyrimidine], the “Survival ratio (mice surviving / mice tested)” value with Pasteurella multocida (setting [1]) is 4/10. The responders at 5 mg/kg in the assay on Pasteurella multocida (setting [2]) and with Pasteurella multocida (setting [3]) was 50% each time.

As for `Cl.Cn1c([N+](=O)[O-])cnc1-c1nn(C)c2ncnc(N)c12` [Example 4a, 4-amino-1-methyl-3-(1-methyl-5-nitroimidazol-2-yl)-1H-pyrazolo[3,4-d]pyrimidine hydrochloride], the “Survival ratio (mice surviving / mice tested)” value in the assay with Pasteurella multocida (setting [1]), with Pasteurella multocida (setting [2]) and in the assay with Pasteurella multocida (setting [3]) was 7/10 in each case.

`Cn1c([N+](=O)[O-])cnc1-c1nn(C)c2ncn(Cc3ccncc3)c(=N)c12` [Example 8k, 4,5-dihydro-4-imino-1-methyl-3-(1-methyl-5-nitroimidazol-2-yl)-5-(4-pyridylmethyl)-1H-pyrazolo[3,4-d]pyrimidine diphosphate]: the MIC with Aeromonas liquefaciens came out at 50 µg/mL; in the assay on Pseudomonas sp., 0.78 µg/mL.

As for `Cn1c([N+](=O)[O-])cnc1-c1nn(C)c2ncnc(NN)c12.O=P(O)(O)O` [Example 9a, 4-hydrazino-1-methyl-3-(1-methyl-5-nitroimidazol-2-yl)-1H-pyrazolo[3,4-d]-pyrimidine monophosphate], the MIC was found to be 25 µg/mL with Aeromonas liquefaciens and 0.78 µg/mL in the assay with Pseudomonas sp..

Take `Cn1c([N+](=O)[O-])cnc1-c1nn(C)c2nc(C(F)(F)F)[nH]c(=O)c12` [Example 12, 1,5-Dihydro-1-methyl-3-(1-methyl-5-nitroimidazol-2-yl)-6-(trifluoromethyl)-4H-pyrazolo[3,4-d]pyrimidin-4-one]: the responders at 5 mg/kg in the assay on Pasteurella multocida (setting [1]) is 20%; in the assay with Pasteurella multocida (setting [2]) it was 20%; in the assay with Pasteurella multocida (setting [3]) it was 0%.

For the molecule `CCN(CC)CCn1cnc2c(c(-c3ncc([N+](=O)[O-])n3C)nn2C)c1=N` [Example 8a, 5-[2-(Diethylamino)ethyl]-4,5-dihydro-4-imino-1-methyl-3-(1-methyl-5-nitroimidazol-2-yl)-1H-pyrazolo[3,4-d]-pyrimidine], the responders at 5 mg/kg with Pasteurella multocida (setting [1]) is 40%; in the assay on Pasteurella multocida (setting [2]), 20%; in the assay on Pasteurella multocida (setting [3]) it was 100%.

Take `Cn1c([N+](=O)[O-])cnc1-c1nn(C)c2ncn(Cc3ccncc3)c(=N)c12` [Example 8d, 4,5-Dihydro-4-imino-1-methyl-3-(1-methyl-5-nitroimidazol-2-yl)-5-(4-pyridylmethyl)-1H-pyrazolo[3,4-d]pyrimidine]: the responders at 5 mg/kg with Pasteurella multocida (setting [1]), with Pasteurella multocida (setting [2]) and in the assay on Pasteurella multocida (setting [3]) was 100% throughout.

As for `Cn1c([N+](=O)[O-])cnc1-c1nn(C)c2ncnc(NN)c12` [Example 9, 4-Hydrazino-1-methyl-3-(1-methyl-5-nitroimidazol-2-yl)-1H-pyrazolo[3,4-d]pyrimidine], the responders at 5 mg/kg was 100% with Pasteurella multocida (setting [1]), 80% in the assay on Pasteurella multocida (setting [2]) and 90% with Pasteurella multocida (setting [3]).

Regarding `Cn1c([N+](=O)[O-])cnc1-c1nn(C)c2ncnc(NCC(=O)O)c12` [Example 6, N-[1-Methyl-3-(1-methyl-5-nitroimidazol-2-yl)-1H-pyrazolo[3,4-d]pyrimidin-4-yl]glycine], the responders at 5 mg/kg in the assay with Pasteurella multocida (setting [1]), with Pasteurella multocida (setting [2]) and with Pasteurella multocida (setting [3]) was 20% throughout.

Regarding `CCCn1cnc2c(c(-c3ncc([N+](=O)[O-])n3C)nn2C)c1=N` [Example 5, 4,5-Dihydro-4-imino-1-methyl-3-(1-methyl-5-nitroimidazol-2-yl)-5-propyl-1H-pyrazolo[3,4-d]pyrimidine], the values for the responders at 5 mg/kg in the assay on Pasteurella multocida (setting [1]), in the assay with Pasteurella multocida (setting [2]) and in the assay on Pasteurella multocida (setting [3]) were 30%, 60% and 90%, respectively.

Consider `CCOC(Cn1cnc2c(c(-c3ncc([N+](=O)[O-])n3C)nn2C)c1=N)OCC` [Example 14, 4-Imino-1-methyl-3-(1-methyl-5-nitroimidazol-2-yl)-1H-pyrazolo-[3,4-d]pyrimidine-5(4H)-acetaldehyde, diethyl acetal], for which the responders at 5 mg/kg in the assay with Pasteurella multocida (setting [1]) was 0%; in the assay with Pasteurella multocida (setting [2]), 20%; with Pasteurella multocida (setting [3]) it was 40%.
